Tests used:
[1] = ORAC test (Oxygen-Radical Absorbance Capacity): fluorescein degradation by peroxyl radicals; format: biochemical; conditions: n = 6
Source text: Principle: the ORAC test (“Oxygen-Radical Absorbance Capacity”) measures degradation by the oxidative way of a fluorescent molecule (fluorescein). Degradation of fluorescein by peroxyl radicals generated by AAPH (2,2′-azobis (2-amidinopropane) dichloride) induces a decrease in fluorescence measured by a spectrofluorometer during a degradation kinetic.
An antioxidant protects this fluorescein against this radical degradation. The decrease in fluorescence will be smaller and slower in the presence of the antioxidant than in its absence. The comparison between the parameters of the two kinetics makes it possible to calculate a percentage of protection against free radical degradation.

tyrosinase = molecular target: T1, tyrosinase (Homo sapiens, UniProt P14679); assay: Residual tyrosinase activity in human melanocytes; format: cell-based; conditions: for tyrosinase activity: 5 days, n = 4
T1 construct: endogenous in cells; host or cells: human melanocytes
T1 sequence (P14679 19-529): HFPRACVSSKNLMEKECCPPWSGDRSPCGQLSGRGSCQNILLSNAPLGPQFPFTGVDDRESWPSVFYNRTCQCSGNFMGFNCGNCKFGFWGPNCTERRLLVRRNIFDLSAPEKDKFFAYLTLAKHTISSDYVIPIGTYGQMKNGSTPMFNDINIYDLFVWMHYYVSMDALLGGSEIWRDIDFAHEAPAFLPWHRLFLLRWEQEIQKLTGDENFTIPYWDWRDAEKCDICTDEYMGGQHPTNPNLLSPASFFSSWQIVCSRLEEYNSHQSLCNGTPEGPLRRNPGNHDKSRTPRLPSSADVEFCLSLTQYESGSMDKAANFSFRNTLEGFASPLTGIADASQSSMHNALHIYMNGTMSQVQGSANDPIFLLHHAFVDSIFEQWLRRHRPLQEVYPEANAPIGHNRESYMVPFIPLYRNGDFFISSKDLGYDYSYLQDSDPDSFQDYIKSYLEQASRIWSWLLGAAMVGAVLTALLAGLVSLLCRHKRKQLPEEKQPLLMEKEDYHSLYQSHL
Procedure: Principle: Human melanocytes are seeded and placed in contact with the GGP for 5 days. After incubation, the residual tyrosinase activity and total melanin content were measured in cell homogenates, and then divided by the number of cells (melanin) or to the protein amount (tyrosinase).

human dermal fibroblasts = assay: Senescence associated β-galactosidase activity in fibroblasts after oxidising stress (FDG fluorimetry); format: cell-based; conditions: for β-galactosidase relative activity: after oxidising stress, n = 4
Procedure: Principle: Proliferative human dermal fibroblasts were contacted or not with the GGP for 72 hours in a growth medium. After this first incubation, the cells were subjected for 5 days to an oxidative stress daily, one hour each, in a basic medium, common to all cultures. This stress is known to create a SIPS and to induce a strong increase in β-galactosidase activity in the stressed culture compared to an unstressed culture. Between two stress cells are returned to the growth medium with or without the substance tested. After the fifth stress, β-galactosidase activity is evaluated.
Evaluation of β-galactosidase activity is done after fixing the layers. They are put in contact with a substrate of β-galactosidase nonfluorescent FDG (fluorescein di-β-galactopyranoside), which will release a fluorescent compound upon hydrolysis by β-galactosidase. The emitted fluorescence is quantified in a fluorometer. It will increase with the amount of senescent cells present in culture. The relative activity of β-galactosidase thus found is 2974+/−957 UFA/million cells in a proliferative culture and increases by a factor 5 (p<0.01) in a culture little to not proliferative.

Keratinocytes = assay: Keratinocyte culture survival and recovery after UVB stress (cell count); format: cell-based; conditions: for Cell number, mean (n = 3): UVB 50 mJ/cm^2, six days later
Procedure: Keratinocytes in monolayer, after an UVB radiation (12 to 240 mJ/cm^2), develop on their surface many burgeons, detach from the culture medium, undergo damages up to death. A cell count at various times after UVB radiation is used to evaluate the cell viability of the culture. This model is widely used in cosmetics to evaluate the protective effect of various compounds against the deleterious effects of UVB stress.
Principle: Keratinocytes were cultured in 35 mm dish. Just at confluence, the cells are contacted or not with the GGP for 24 hours. UVB irradiation (50 mJ/cm^2) is performed the next day, and the cells are or not contacted with the GGP. Six days later, the cells are counted to determine the cell viability in culture.

fibroblasts (FHN) = assay: Intracellular peroxide level (DCFH-DA probe) in fibroblasts after SIPS; format: cell-based, human; conditions: 3 ppm
Procedure: Principle: Fibroblasts at confluence contacted or not with the GGP for several days, are subjected to oxidative stress by hydrogen peroxide in the presence or absence of the GGP. This stress is intended to induce premature senescence in cells.
After this initial stress, the cells were detached from the support and returned to culture at low density until confluence. They are then contacted or not with the compound of the invention for 24 hours. At this stage, each set of cultures (with or without the tested compounds) is divided into 2 lots. A first batch (not stressed) is evaluated directly for its concentration of intracellular peroxides (using the probe DCFH-DA). Simultaneously, the other batch (stressed) undergoes a second stress by hydrogen peroxide (weaker than the first) just before being evaluated in the same way regarding the concentration of intracellular peroxides.
The amount of fluorescence measured with this probe is directly proportional to the amount of peroxides present in the cells.

β-galactosidase = assay: Cell-free β-galactosidase inhibition check; format: biochemical; conditions: cell-free system

SMILES: CC(C)=CCC/C(C)=C/CC/C(C)=C/CC/C(C)=C/CCC(C)O (stereo not shown) [GGP, 6,10,14,18-tetramethylnonadeca-5,9,13,17-tetraen-2-ol]
- % of protection ([1]; 10 ppm): 56%
- % of protection ([1]; 50 ppm): 68%
- % of protection ([1]; 200 ppm): 77%
- % of protection ([1]; 400 ppm): 87%
- Change (%) of tyrosinase activity vs control (tyrosinase; 1 ppm): −11%; p < 0.05
- tyrosinase activity (tyrosinase; 1 ppm): 6.196 +/− 0.318 U/μg prot
- Change (%) of tyrosinase activity vs control (tyrosinase; 3 ppm): −29%; p < 0.01
- tyrosinase activity (tyrosinase; 3 ppm): 4.956 +/− 0.129 U/μg prot
- Change (%) of tyrosinase activity vs control (tyrosinase; 5 ppm): −49%; p < 0.01
- tyrosinase activity (tyrosinase; 5 ppm): 3.588 +/− 0.248 U/μg prot
- Change with regard to control (β-galactosidase) (human dermal fibroblasts; 3 ppm): −35%; p = 0.05
- β-galactosidase relative activity (human dermal fibroblasts; 3 ppm): 3702 +/− 992 FAU/10^6 cells
- Change with regard to control (β-galactosidase) (human dermal fibroblasts; 5 ppm): −51%; p < 0.02
- β-galactosidase relative activity (human dermal fibroblasts; 5 ppm): 2789 +/− 803 FAU/10^6 cells
- % change/control of cell number (Keratinocytes; 1 ppm): +31%
- Cell number, mean (n = 3) (Keratinocytes; 1 ppm): 4.83 ×10^5/35 mm dish
- % change/control of cell number (Keratinocytes; 1.65 ppm): +38%
- Cell number, mean (n = 3) (Keratinocytes; 1.65 ppm): 5.08 ×10^5/35 mm dish
- Endogen peroxides (fibroblasts (FHN); SIPS fibroblasts subjected to a second oxidant stress): 161 +/− 14 UFA/million of cells
- % Change/Control of endogen peroxides (fibroblasts (FHN); after SIPS, not stressed again): −40%; p < 0.01
- Endogen peroxides (fibroblasts (FHN); after SIPS, not stressed again): 61.2 +/− 2.6 UFA/million of cells
- inhibition of β-galactosidase (β-galactosidase): not an inhibitor of β-galactosidase

Reference: patent US9126060B2, “Cosmetic use of geranylgeranyl-2-propanol” (SEDERMA, priority 2010, dated 2015)
